{"source": "patent US10188633B2", "about": "“Identification of small molecules that facilitate therapeutic exon skipping” (The Regents of the University of California, priority 2011, dated 2019)", "key": {"mdx mice": {"system": "mdx mice", "assay": "Taut wire test (wire hang) in mdx mice, weekly AO with daily dantrolene", "type": "in vivo, mouse", "details": "10 mg/kg/week AO with dantrolene 10 mg/kg/day versus AO alone, Day 18, p=0.022", "procedure": "Weekly systemic doses of saline, 10 mg/kg of morpholino M23D (+07-18) was administered intravascularly on Day 1, 8, and 15. Dantrolene or carrier (20% DMSO in saline) was administered intraperitoneally at a dose of 10 mg/kg/day in two divided doses daily. On Day 18 functional improvement was blindly assessed by using the taut wire test. Latency to fall (in seconds) was recorded for five consecutive trials, with a one minute break occurring in between each trial. Plotted is first the average across five trials, and then the normalized average (seconds/grams) across experimental groups. Error bars represent the s.e.m."}, "Dmd exon 23": {"system": "Dmd exon 23", "assay": "Dmd exon 23 skipping in primary mouse myotubes with 2'-O-methyl AO M23D (RT-PCR, taqman)", "type": "cell-based", "procedure": "(§1) (A) Differentiated primary mouse myotubes were transfected either with 100 nM 2′-O-methyl M23D, which targets exon 23 splice donor region or mock transfected for 24 hours after which the transfection reagent was removed, and myotubes were treated with different concentrations of Dantrolene for 48 hours. Nested RT-PCR was performed on cDNA between exons 20-26, as previously described. The 901 bp band is the full-length mRNA product, the 688 bp mRNA product is a single skip of exon 23, and the 550 bp mRNA product is a double skip of exons 22 and 23. (B) Mouse Dmd exon 23-skipped transcript levels were quantified using a taqman assay with primer-probe sets spanning the splice junction created by an exon 23 skip (22-24 join) relative to primers amplifying the splice junction of exons 22 and 23 (representing the full length mRNA), as previously described. […] Error bars represent standard deviation of qRT-PCR triplicates. (C) Patient derived fibroblasts with exon 45-50 deletion (confirmed by microarray, see FIG. 6) were immortalized with lentiviral hTERT and transduced with inducible lentiviral MyoD [26]. Cells were grown to confluence, induced for MyoD activity, and fused for 10 days in low serum differentiation media. On Day 7, h51AON [5′ […] 3′] (SEQ ID NO:2) (same sequence as Pro051) within human exon 51 was added at concentrations indicated. Twenty-four hours later Dantrolene or vehicle was added. Cells were harvested 2 days later and total RNA isolated. RT-PCR amplified a fragment of cDNA from exons 42-53 which was followed by a nested PCR to generate a fragment spanning exons 43-52. The 540 bp product is the full length DMD mRNA species and the 307 bp product indicates the exon 51 skip isoform. Quantitation was performed using the Agilent Bioanalyzer and represented as the skip/full-length mRNA ratio."}, "[1]": {"system": "human DMD exon 50 GFP based reporter", "assay": "Secondary screening, 12 or 16 point titrations on the DMD exon 50 reporter cell line with or without AON6", "type": "cell-based, mouse", "procedure": "12 or 16 point titrations of compounds were added to the Ex50-GFP and C2C12 myoblasts either with or without AON6.\nA stable clone was generated from C2C12 cells transfected with a human exon 50 DMD GFP reporter (ex50GFP) that has been previously described. Ex50GFP reporter myoblasts were seeded into uncoated 384 well plates and were incubated for 4 hours either with or without 300 nM of 2′-O-methyl phosphorothioate AON6 [5′[…] 3′ (SEQ ID NO:1)] targeting the human exon 50 splice donor site. Cells were transfected with AON6 using the FUGENE (Roche) transfection reagent per manufacturer's instructions. Following AON6 incubation, each component of the BioMol library (n=503) was screened at 10 uM concentration with a final concentration of the DMSO carrier being 1%. Forty-eight hours later fluorescence was measured using the MicroXpress high content imager and analyzed using MetaXpress. Immediately preceding imaging, DNA was stained with Hoescht for 30 min. The BioMol screen without AO (−AO) was performed in 6 replicates, and the with AO (+AO) screen was performed in 3 replicates. For the screen analysis raw fluorescence values were normalized to carrier controls present on each plate by subtracting the values. Negative fluorescence values were set to 0. The data from each compound were averaged from all replicates. For secondary screening by 12 or 16 point dose response, Ex50GFP myoblasts or C2C12 cells without the reporter were seeded on uncoated 384 well plates. A sub-optimal dose of AON6 targeting DMD exon 50 was added for 4 hours. Following the 4 hour incubation, a compound dilution was added (beginning at 100 uM with 1:1 dilutions) for either 12 or 16 points. After a 48 hour incubation with compounds, DNA was stained with Hoescht, and fluorescence determined using the high content imager and analyzed with MetaXpress."}, "DMD exon 51": {"system": "DMD exon 51", "assay": "DMD exon 51 skipping in reprogrammed DMD patient fibroblasts fused to myotubes (GM05017, iDRM05017) with exon 51 AO", "type": "cell-based, human", "procedure": "as §1\nPatient fibroblasts with a DMD exon 45-50 deletion were immortalized and transduced with a lenti-viral vector expressing inducible MyoD to create iDRMs (inducibly directly reprogrammable myotubes, specifically iDRM05017s). iDRM05017s were induced for MyoD activity and then cultured for 10 days in fusion media. On Day 7, AO was added for twenty-four hours then removed and Piperacetazine, Trifluoperazine Dihydrochloride, Fluphenazine Dihydrochloride or vehicle (Dimethyl sulfoxide; DMSO) were added in fresh media. After two days total RNA was harvested, cDNA reverse transcribed with a DMD specific primer in exon 54, and exon 51 skipping was detected by nested RT-PCR spanning exons 43-52. Quantitation of exon 51 skipping was performed using the Agilent Bioanalyzer and is represented as the proportion of exon 51 skipping. Error bars represent the standard deviation (SD) of 3 independent wells.\nPatient fibroblasts were transduced with HTERT and an inducible MyoD vector [26]. […] Exon 51 skipping activity was assessed in the context of transfecting an exon 51 2′-O-methyl AO with equivalent sequence to Pro051 seven days after fusion. This AO is directed at an exonic splicing enhancer (ESE) sequence within exon 51. The AO was removed prior to addition of dantrolene and cultures were harvested two days later. A nested RT-PCR was performed between DMD exons 43-52 and levels of exon 51 skipping were determined by quantitating capillary electrophoresis separated fragments representing skipped and unskipped DMD mRNA."}, "[2]": {"details": "long term administration; cited from earlier work"}, "DMD patients": {"system": "DMD patients", "details": "oral, after 2 years of daily treatment; cited from earlier work"}}, "data": [{"smiles": "O=C1CN(/N=C/c2ccc(-c3ccc([N+](=O)[O-])cc3)o2)C(=O)N1", "note": "[DANTROLENE]", "values": [{"measurement": "taut wire test, latency to fall (muscle strength)", "setting": "mdx mice; listed as Dantrolene", "value": "significantly increased ability of mdx mice to hang on wire"}, {"measurement": "taut wire test, latency to fall (muscle strength)", "setting": "mdx mice; listed as dantrolene", "value": "functional benefit"}, {"measurement": "amount of exon 23 skipped product (RT-PCR exons 20-26)", "setting": "Dmd exon 23; 25 and 50 uM dantrolene after 100 nM M23D", "value": "increased the amount of exon 23 skipped product"}, {"measurement": "exon 23 skipping in the absence of AO", "setting": "Dmd exon 23; no AO", "value": "failed to cause exon 23 skipping"}, {"measurement": "increase of Dmd exon 23 skipping (skip/full length mRNA, taqman) versus AO alone", "setting": "Dmd exon 23; with suboptimal 100 nM AO M23D, mouse myotubes", "value": 3, "unit": "fold"}, {"measurement": "increase in fluorescence in the Ex50-GFP+AO compared to the reporter line without AO", "setting": "[1]; 12 or 16 point titrations from 100 uM, positivity criterion (FIG. 5 legend: >10%)", "value": 10, "unit": "%"}, {"measurement": "dose response in Ex50-GFP reporter", "setting": "[1]; 12 or 16 point titrations with AON6", "value": "evidence of a dose response"}, {"measurement": "AO directed DMD exon 51 skipping", "setting": "DMD exon 51; compound added 24 h after AO for two days, nested RT-PCR exons 43-52", "value": "enhance AO directed DMD exon 51 skipping"}, {"measurement": "enhancement of exon 51 skipping versus vehicle control", "setting": "DMD exon 51; with suboptimal dose of exon 51 AO, skip/full-length mRNA ratio, Bioanalyzer", "value": "up to 8 fold"}, {"measurement": "dose shown to be safe in humans", "setting": "[2]", "value": "up to 8 mg/kg/day"}, {"measurement": "creatine kinase levels", "setting": "DMD patients", "value": "slightly reduced"}, {"measurement": "manual muscle test", "setting": "DMD patients", "value": "modest improvement"}, {"measurement": "side effects", "setting": "DMD patients", "value": "without substantial harmful side effects"}]}]}
